Laboratory results: ChEMBL document CHEMBL3885881, “DrugMatrix”

Organism: Rattus norvegicus
Assay: DrugMatrix - Regimen: Daily Repeat
Type: toxicity, organism-based, Sprague-Dawley
Design: regimen Daily Repeat, gender Male, age 6-8 weeks
Conditions: in vivo, iv, vehicle 100 % SALINE; for ABSOLUTE BASOPHIL / ABSOLUTE EOSINOPHIL / ABSOLUTE LYMPHOCYTE / ABSOLUTE MONOCYTE / ABSOLUTE SEGMENTED NEUTROPHIL / BASOPHIL / EOSINOPHIL / ERYTHROCYTE COUNT / HEMATOCRIT / HEMOGLOBIN / LEUKOCYTE COUNT / LYMPHOCYTE / MEAN CORPUSCULAR HEMOGLOBIN / MEAN CORPUSCULAR HEMOGLOBIN CONCENTRATION / MEAN CORPUSCULAR VOLUME / MONOCYTE / NEUTROPHIL / NUCLEATED RED BLOOD CELLS / PLATELET COUNT: tissue Blood; for ALANINE AMINOTRANSFERASE / ALBUMIN / ALKALINE PHOSPHATASE / ASPARTATE AMINOTRANSFERASE / BLOOD UREA NITROGEN / CARBON DIOXIDE / CHLORIDE / CHOLESTEROL / CREATINE PHOSPHOKINASE / CREATININE / GLUCOSE / LACTATE DEHYDROGENASE / LIPASE / PHOSPHORUS / POTASSIUM / SODIUM / TOTAL BILIRUBIN / TOTAL PROTEIN / URIC ACID: tissue Plasma
[1] = 10 mg/kg, 120 h, dose level Low, time 5 day
[2] = 350 mg/kg, 72 h, dose level High, time 3 day
[3] = 350 mg/kg, 120 h, dose level High, time 5 day

O=C(O)P(=O)(O)O [FOSCARNET]
ABSOLUTE BASOPHIL [1]: 0 CELLS/uL | ABSOLUTE EOSINOPHIL [1]: 341 CELLS/uL | ABSOLUTE LYMPHOCYTE [1]: 13776.67 CELLS/uL | ABSOLUTE MONOCYTE [1]: 353.33 CELLS/uL | ABSOLUTE SEGMENTED NEUTROPHIL [1]: 929 CELLS/uL | BASOPHIL [1]: 0% | EOSINOPHIL [1]: 2% | ERYTHROCYTE COUNT [1]: 5.8 x10E6/uL | HEMATOCRIT [1]: 36.87% | HEMOGLOBIN [1]: 13.6 G/DL | LEUKOCYTE COUNT [1]: 15.4 x10E3/uL | LYMPHOCYTE [1]: 89.67% | MEAN CORPUSCULAR HEMOGLOBIN [1]: 23.47 pg | MEAN CORPUSCULAR HEMOGLOBIN CONCENTRATION [1]: 36.93 G/DL | MEAN CORPUSCULAR VOLUME [1]: 63.6 fL | MONOCYTE [1]: 2.33% | NEUTROPHIL [1]: 6% | NUCLEATED RED BLOOD CELLS [1]: 0 /100WBC | PLATELET COUNT [1]: 1343 x10E3/uL | ALANINE AMINOTRANSFERASE [1]: 47.67 u/L | ALBUMIN [1]: 4.3 G/DL | ALKALINE PHOSPHATASE [1]: 297.67 u/L | ASPARTATE AMINOTRANSFERASE [1]: 89 u/L | BLOOD UREA NITROGEN [1]: 17.67 mg/dL | CARBON DIOXIDE [1]: 23.67 mmol/L | CHLORIDE [1]: 105 MEQ/L | CHOLESTEROL [1]: 61.33 mg/dL | CREATINE PHOSPHOKINASE [1]: 1049.33 u/L | CREATININE [1]: 0.22 mg/dL | GLUCOSE [1]: 193.67 mg/dL | LACTATE DEHYDROGENASE [1]: 149 u/L | LIPASE [1]: 8 u/L | PHOSPHORUS [1]: 11.77 mg/dL | POTASSIUM [1]: 5.32 MEQ/L | SODIUM [1]: 145.43 MEQ/L | TOTAL BILIRUBIN [1]: 0.23 mg/dL | TOTAL PROTEIN [1]: 5.93 G/DL | URIC ACID [1]: 1.67 mg/dL | ABSOLUTE BASOPHIL [2]: 0 CELLS/uL | ABSOLUTE EOSINOPHIL [2]: 0 CELLS/uL | ABSOLUTE LYMPHOCYTE [2]: 12652 CELLS/uL | ABSOLUTE MONOCYTE [2]: 325.67 CELLS/uL | ABSOLUTE SEGMENTED NEUTROPHIL [2]: 1422.33 CELLS/uL | BASOPHIL [2]: 0% | EOSINOPHIL [2]: 0% | ERYTHROCYTE COUNT [2]: 5.36 x10E6/uL | HEMATOCRIT [2]: 33.47% | HEMOGLOBIN [2]: 12.6 G/DL | LEUKOCYTE COUNT [2]: 14.4 x10E3/uL | LYMPHOCYTE [2]: 88% | MEAN CORPUSCULAR HEMOGLOBIN [2]: 23.57 pg | MEAN CORPUSCULAR HEMOGLOBIN CONCENTRATION [2]: 37.67 G/DL | MEAN CORPUSCULAR VOLUME [2]: 62.47 fL | MONOCYTE [2]: 2.33% | NEUTROPHIL [2]: 9.67% | NUCLEATED RED BLOOD CELLS [2]: 0 /100WBC | PLATELET COUNT [2]: 1373.67 x10E3/uL | ALANINE AMINOTRANSFERASE [2]: 45 u/L | ALBUMIN [2]: 4.13 G/DL | ALKALINE PHOSPHATASE [2]: 377 u/L | ASPARTATE AMINOTRANSFERASE [2]: 95.33 u/L | BLOOD UREA NITROGEN [2]: 15.67 mg/dL | CARBON DIOXIDE [2]: 26 mmol/L | CHLORIDE [2]: 102.67 MEQ/L | CHOLESTEROL [2]: 71 mg/dL | CREATINE PHOSPHOKINASE [2]: 483.67 u/L | CREATININE [2]: 0.18 mg/dL | GLUCOSE [2]: 145.33 mg/dL | LACTATE DEHYDROGENASE [2]: 795 u/L | LIPASE [2]: 8.33 u/L | PHOSPHORUS [2]: 9.37 mg/dL | POTASSIUM [2]: 6.24 MEQ/L | SODIUM [2]: 142.23 MEQ/L | TOTAL BILIRUBIN [2]: 0.2 mg/dL | TOTAL PROTEIN [2]: 5.57 G/DL | URIC ACID [2]: 1.27 mg/dL | ABSOLUTE BASOPHIL [3]: 0 CELLS/uL | ABSOLUTE EOSINOPHIL [3]: 0 CELLS/uL | ABSOLUTE LYMPHOCYTE [3]: 12914 CELLS/uL | ABSOLUTE MONOCYTE [3]: 384.67 CELLS/uL | ABSOLUTE SEGMENTED NEUTROPHIL [3]: 1034.67 CELLS/uL | BASOPHIL [3]: 0% | EOSINOPHIL [3]: 0% | ERYTHROCYTE COUNT [3]: 5.17 x10E6/uL | HEMATOCRIT [3]: 33.93% | HEMOGLOBIN [3]: 13.03 G/DL | LEUKOCYTE COUNT [3]: 14.33 x10E3/uL | LYMPHOCYTE [3]: 90.33% | MEAN CORPUSCULAR HEMOGLOBIN [3]: 25.2 pg | MEAN CORPUSCULAR HEMOGLOBIN CONCENTRATION [3]: 38.4 G/DL | MEAN CORPUSCULAR VOLUME [3]: 65.67 fL | MONOCYTE [3]: 2.67% | NEUTROPHIL [3]: 7% | NUCLEATED RED BLOOD CELLS [3]: 0 /100WBC | PLATELET COUNT [3]: 1324.67 x10E3/uL | ALANINE AMINOTRANSFERASE [3]: 45 u/L | ALBUMIN [3]: 4.13 G/DL | ALKALINE PHOSPHATASE [3]: 385.67 u/L | ASPARTATE AMINOTRANSFERASE [3]: 74.67 u/L | BLOOD UREA NITROGEN [3]: 19 mg/dL | CARBON DIOXIDE [3]: 28.67 mmol/L | CHLORIDE [3]: 103.67 MEQ/L | CHOLESTEROL [3]: 69.33 mg/dL | CREATINE PHOSPHOKINASE [3]: 209.67 u/L | CREATININE [3]: 0.22 mg/dL | GLUCOSE [3]: 170 mg/dL | LACTATE DEHYDROGENASE [3]: 103.33 u/L | LIPASE [3]: 9 u/L | PHOSPHORUS [3]: 10.83 mg/dL | POTASSIUM [3]: 6.68 MEQ/L | SODIUM [3]: 143.67 MEQ/L | TOTAL BILIRUBIN [3]: 0.23 mg/dL | TOTAL PROTEIN [3]: 5.9 G/DL | URIC ACID [3]: 1.53 mg/dL
